We go through two compounds from patent US6399782B1, “Benzimidazole inhibitors of fructose 1,6-bisphosphatase” (Metabasis Therapeutics, Inc., priority 1997, dated 2002).

The target of one data set is T1, mouse liver FBPase (Mus musculus, UniProt Q9QXD6).
T1 construct: This partially purified fraction was used for enzyme assays; from tissue; host or cells: mouse liver, 45-75% ammonium sulfate fraction
T1 sequence (Q9QXD6 2-338 limits assumed): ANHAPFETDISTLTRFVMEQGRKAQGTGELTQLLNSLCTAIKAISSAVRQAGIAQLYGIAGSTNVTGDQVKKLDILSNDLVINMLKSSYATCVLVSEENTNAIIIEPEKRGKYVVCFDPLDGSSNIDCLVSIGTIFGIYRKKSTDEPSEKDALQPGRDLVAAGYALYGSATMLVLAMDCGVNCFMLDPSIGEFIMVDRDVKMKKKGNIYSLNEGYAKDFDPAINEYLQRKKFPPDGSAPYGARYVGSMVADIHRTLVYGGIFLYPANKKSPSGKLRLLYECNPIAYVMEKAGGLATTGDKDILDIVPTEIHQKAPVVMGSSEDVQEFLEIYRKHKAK
In words: Inhibition of mouse liver FBPase. Conditions: partially purified mouse liver fraction. The format is biochemical. The method, then: Enzymatic activity was measured spectrophotometrically in reactions that coupled the formation of product (fructose 6-phosphate) to the reduction of dimethylthiazoldiphenyltetrazolium bromide (MTT) via NADP and phenazine methosulfate (PMS), using phosphoglucose isomerase and glucose 6-phosphate dehydrogenase as the coupling enzymes. Reaction mixtures (200 μl) were made up in 96-well microtitre plates, and consisted of 50 mM Tris-HCl, pH 7.4, 100 mM KCl, 5 mM EGTA, 2 mM MgCl2, 0.2 mM NADP, 1 mg/ml BSA, 1 mM MTT, 0.6 mM PMS, 1 unit/mL phosphoglucose isomerase, 2 units/mL glucose 6-phosphate dehydrogenase, and 0.150 mM substrate (fructose 1,6-bisphosphate). Inhibitor concentrations were varied from 0.01 μM to 10 μM.
Mouse liver FBPase was obtained by homogenizing freshly isolated mouse liver in 100 mM Tris-HCl buffer, pH 7.4, containing 1 mM EGTA, and 10% glycerol. […] This fraction was redissolved in the homogenization buffer and desalted on a PD-10 gel filtration column (Biorad) eluted with same. This partially purified fraction was used for enzyme assays. Both rat liver and mouse liver FBPase were assayed as described for human liver FBPase.

For another data set, the system named is rat hepatocytes. Description: Glucose production inhibition and fructose 1,6-bisphosphate accumulation in rat hepatocytes. The format is cell-based. The method, then: Hepatocytes were prepared from overnight fasted Sprague-Dawley rats (250-300 g) according to the procedure of Berry and Friend (Berry, M. N., Friend, D. S., 1969, J. Cell. Biol. 43, 506-520) as modified by Groen (Groen, A. K., Sips, H. J., Vervoorn, R. C., Tager, J. M., 1982, Eur. J. Biochem. 122, 87-93). Hepatocytes (75 mg wet weight/mL) were incubated in 1 ml Krebs-bicarbonate buffer containing 10 mM Lactate, 1 mM pyruvate, 1 mg/mL BSA, and test compound concentrations from 1 to 500 μM. Incubations were carried out in a 95% oxygen, 5% carbon dioxide atmosphere in closed, 50-mL Falcon tubes submerged in a rapidly shaking water bath (37° C.). After 1 hour, an aliquot (0.25 mL) was removed, transferred to an Eppendorf tube and centrifuged. 50 μL of supernatant was then assayed for glucose content using a Sigma Glucose Oxidase kit as per the manufacturer's instructions.
Isolated rat hepatocytes were prepared as described in Example D and incubated under the identical conditions described. […] After thorough mixing and centrifugation, the supernatant was analyzed for glucose content as described in Example D, and also for fructose 1,6-bisphosphate. Fructose 1,6-bisphosphate was assayed spectrophotometrically by coupling its enzymatic conversion to glycerol 3-phosphate to the oxidation of NADH, which was monitored at 340 nm. […]

Data set [1] is described as follows: Analysis of drug levels and liver accumulation in rats. The settings on record: rat, 20 mg/kg intraperitoneally, one hour post injection. In kind it is in vivo. The protocol: Sprague-Dawley rats (250-300 g) were fasted for […] and then dosed intraperitoneally either with saline (n=3) or 20 mgs/kg of FBPase inhibitor (n=4). The vehicle used for drug administration was 10 mM bicarbonate. One hour post injection rats were anesthetized with halothane and a liver biopsy (approx. 1 g) was taken as well as a blood sample (2 ml) from the posterior vena cava. A heparin flushed syringe and needle was used for blood collection. The liver sample was immediately homogenized in ice-cold 10% perchloric acid (3 mL), centrifuged, and the supernatant neutralized with ⅓rd volume of 3 M KOH/3 M KH2CO3. Following centrifugation and filtration, 50 μl of the neutralized extract was ana lyzed for FBPase inhibitor content by HPLC. A reverse phase YMC ODS AQ column ([…]) was used and eluted with a gradient from 10 mM sodium phosphate pH 5.5 to 75% acetonitrile. Absorbance was monitored at 310 nm. […] The methanolic extract was clarified by centrifugation and filtration and then analyzed by HPLC as described above.

Data set [2] concerns streptozotocin-treated Sprague-Dawley rats. In words: Blood glucose lowering in the streptozotocin-treated rat. In kind it is in vivo. The protocol:
Diabetes was induced in male Sprague-Dawley rats (250-300 g) by intraperitoneal injection of 55 mg/kg streptozotocin (Sigma Chemical Co.). Six days later, 24 animals were selected with fed blood glucose values (8 am) between 350 and 600 mg/dL and divided into two statistically equivalent groups. Blood glucose was measured in blood obtained from a tall vein nick by means of a HemoCue Inc. (Mission Viejo, Calif.) glucose analyzer. […] Food was removed from the animals. Blood glucose was measured in each animal four hours after dosing, and a second dose of drug or saline was then administered. Four hours later, a final blood glucose measurement was made.

The subject of data set [3] is 18-hour fasted Sprague Dawley rats. Description: Glucose lowering following oral administration. The format is in vivo, rat. The method, then: The compound was prepared in deionized water, adjusted to neutrality with sodium hydroxide, and brought into solution by sonication prior to administration. Blood glucose was measured immediately prior to dosing, and at 1 hour intervals thereafter. Blood samples were obtained from the tail vein, and measurements made by means of a Hemocue glucose analyzer (Hemocue Inc, Mission Viejo, Calif.) used according to the manufacturer's instructions. […] The average glucose lowering in the four responding animals was 62±8.6% relative to saline-treated controls at the 1 hour time point.

`Nc1c(F)ccc2c1nc(-c1ccc(P(=O)(O)O)o1)n2CC1CC1` [Compound 12.61, 4-Amino-5-fluoro-1-cyclopropylmethyl-2-(2-phosphono-5-furanyl)benzimidazole]: the IC50 against mouse liver FBPase was more than 20 µM.
As to `CCc1cc(F)c(N)c2nc(-c3ccc(P(=O)(O)O)o3)n(CC(C)C)c12` [Compound 12.64], the IC50 in the data set with rat hepatocytes (Hepatocyte, Example F, FIG. 5, read-out: IC50 glucose production from lactate/pyruvate) was approximately 3 µM. In the data set on rat hepatocytes (result in words), the “accumulation of fructose 1,6-bisphosphate” value is on record as “dose-dependent accumulation of fructose 1,6 bisphosphate”. In addition, in data set [1], the liver level was 90 nmol/g and the plasma level was found to be 85 µM. Besides, the “Blood glucose, mg/dl T = 8h” value in data set [2] (100 mg/kg intraperitoneally at 0 and 4 h, food removed, 8 hours after the initial dose) came out at 271 ± 29 mg/dL. Besides, the “Blood glucose, mg/dl T = 0h” value in data set [2] (before dosing, streptozotocin-treated rats) is 488 ± 16 mg/dL. Besides, the “blood glucose effect, oral 30 mg/kg” value in data set [3] (oral gavage 30 mg/kg, 18-hour fasted rats) is “without effect”. For the same compound, the “blood glucose effect, oral 100 mg/kg” value in data set [3] (oral gavage 100 mg/kg, 18-hour fasted rats) was “without effect”. In addition, the “average glucose lowering in the four responding animals” value in data set [3] (oral gavage 250 mg/kg, relative to saline-treated controls, 1 hour time point) is 62±8.6%. In addition, in data set [3] (oral gavage 250 mg/kg, within 1 hour of administration), the “animals with profound hypoglycemia” value is 4 out of 5.
